The results in this text go back to US7056655B2, “Methods for monitoring and guiding therapeutic suppression of parathyroid hormone in renal patients having secondary hyperparathyroidism” (Scantibodies Laboratory, Inc., priority 2001, dated 2006).

Type in all cases: in vivo
In assay [1] the test system is PTH antagonist. The assay can be described thus: Clinical trial in ESRD patients: PTH antagonist level (total PTH minus PTH agonist). Conditions: for PTH antagonist decrease: 6 weeks versus 0 weeks; for PTH antagonist decrease / PTH antagonist increase: median values; for PTH antagonist increase: 12 weeks versus 6 weeks; for PTH antagonist: median of ninety patients, 5.5 μg intravenously every three days. From the text: PTH antagonist levels should be measured using an assay that either directly detects PTH antagonist (but not PTH agonist) or indirectly through a total PTH measurement that measures the sum of the PTH agonist and PTH antagonist. An indirect measurement subtracts the PTH agonist value from the total PTH value, deriving the PTH antagonist value. Thus, one should use a total PTH assay that is designed to have essentially 100% cross-reactivity with PTH antagonist and PTH agonist. For example, Scantibodies Laboratory Total Intact PTH Assay or Scantibodies Laboratory Intact PTH Assay are appropriate assays.
(§1) A clinical trial was held for ninety ESRD patients. Each patient had been receiving vitamin D suppressant therapy in accordance with the manufacturer's guidelines. Each patient was removed from the therapy for a washout period of four weeks, and this was confirmed by a rise in PTH measurements after removal of the therapeutic. PTH maxacalcitol (made by Chugai Pharmaceutical Corporation of Tokyo, Japan) suppressant therapy was started after the washout at a constant administration of 5.5 μg intravenously every three days. Blood samples were obtained from each patient after the washout (week 0), six weeks after therapy restart (week 6), and twelve weeks after therapy restart (week 12). The samples were assayed for PTH agonist levels and PTH antagonist levels using the PTH agonist assay and total PTH assay made by Scantibodies Laboratory, Inc. The samples were assayed for bone specific alkaline phosphatase using a commercially available immunoassay from Hybritech, Inc. of San Diego, Calif.
(§2) The results of the assays for the ninety patients are shown in FIG. 2 and the following table as median values: […]

The subject of assay [2] is bone specific alkaline phosphatase. The assay can be described thus: Clinical trial in ESRD patients: bone specific alkaline phosphatase immunoassay (Hybritech). Conditions: for Alkaline Phosphatase decrease: median values; for Alkaline Phosphatase: median of ninety patients, 5.5 μg intravenously every three days. The procedure:
as §1, §2

The test system of assay [3] is PTH agonist. The assay can be described thus: Clinical trial in ESRD patients: PTH agonist assay (Scantibodies) on blood samples. Conditions: for PTH agonist decrease: median values; for PTH agonist: median of ninety patients, 5.5 μg intravenously every three days. The protocol:
as §1, §2

Assay [4] relates to Total PTH. The assay can be described thus: Clinical trial in ESRD patients: total PTH assay (Scantibodies) on blood samples. Conditions: for Total PTH decrease: median values; for Total PTH: median of ninety patients, 5.5 μg intravenously every three days. The protocol:
as §1, §2

[5] abbreviates: 6 weeks versus 0 weeks, listed as PTH suppressant.
Where [6] appears, read: 12 weeks versus 6 weeks, listed as PTH suppressant.

For the molecule `C=C1/C(=C\C=C2/CCC[C@]3(C)[C@@H]([C@H](C)OCCC(C)(C)O)CC[C@@H]23)C[C@@H](O)C[C@@H]1O` [maxacalcitol], the PTH antagonist decrease entry was “(42% decrease)” in assay [1] and 42% in assay [1] (listed as PTH suppressant). Also, the PTH antagonist increase result in assay [1] was “(21% increase)”; in assay [1] (listed as PTH suppressant) it was 21%. Further, the results for the PTH antagonist in assay [1] (6 weeks (0 weeks: 276)) and in assay [1] (12 weeks (0 weeks: 276)) were 160 pg/mL and 194 pg/mL, respectively. The figures for the “Alkaline Phosphatase decrease” value in assay [2] (6 weeks versus 0 weeks) and in assay [2] (12 weeks versus 6 weeks) were “(13% decrease)” and “(16% decrease)”, respectively. Further, the “Alkaline Phosphatase” value in assay [2] (6 weeks (0 weeks: 396)) is reported as 344 U/ml; in assay [2] (12 weeks (0 weeks: 396)) it was 290 U/ml. The PTH agonist decrease entry in assay [3] (6 weeks versus 0 weeks) is recorded as “(41% decrease)”; in assay [3] (setting [5]), 41%; in assay [3] (12 weeks versus 6 weeks), “(8% decrease)”; in assay [3] (setting [6]), 8%. The PTH agonist came out at 361 pg/mL in assay [3] (6 weeks (0 weeks: 609)) and 331 pg/mL in assay [3] (12 weeks (0 weeks: 609)). Further, the “Total PTH decrease” value in assay [4] (6 weeks versus 0 weeks) was “(41% decrease)”; in assay [4] (setting [5]) it was 41%; in assay [4] (12 weeks versus 6 weeks) it was “(1% decrease)”; in assay [4] (setting [6]), 0.8%. In addition, the “Total PTH” value in assay [4] (6 weeks (0 weeks: 886)) worked out at 531 pg/mL; in assay [4] (12 weeks (0 weeks: 886)), 525 pg/mL.
